{"source": "patent US10724099B2", "about": "“Multiplex methods to assay mixed cell populations simultaneously” (The Broad Institute, Inc., priority 2012, dated 2020)", "key": {"CHEK1": {"biological_target": "T1, CHEK1 (Homo sapiens, UniProt O14757)", "T1 construct": "purchased DiscoveRx scanEDGE panel", "experiment": "DiscoveRx KinomeScan binding"}, "GSK3B": {"biological_target": "T2, GSK3B (Homo sapiens, UniProt P49841)", "T2 construct": "purchased DiscoveRx scanEDGE panel", "experiment": "DiscoveRx KinomeScan binding"}, "TRKA": {"biological_target": "T3, TRKA (Homo sapiens, UniProt P04629)", "T3 construct": "purchased DiscoveRx scanEDGE panel", "experiment": "DiscoveRx KinomeScan binding", "conditions": "Entrez NTRK1"}, "BRAF": {"biological_target": "T4, BRAF (Homo sapiens, UniProt P15056)", "T4 construct": "purchased DiscoveRx (KINOMEscan scanEDGE panel)", "experiment": "DiscoveRx KinomeScan binding"}, "PIK3CA": {"biological_target": "T5, PIK3CA (Homo sapiens, UniProt P42336)", "T5 construct": "purchased DiscoveRx scanEDGE panel", "experiment": "DiscoveRx KinomeScan binding"}, "ZAP70": {"biological_target": "T6, ZAP70 (Homo sapiens, UniProt P43403)", "T6 construct": "purchased DiscoveRx (KinomeScan scanEDGE panel service)", "experiment": "DiscoveRx KinomeScan binding"}, "ALK": {"biological_target": "T7, ALK (Homo sapiens, UniProt Q9UM73)", "T7 construct": "purchased DiscoveRx (KINOMEscan scanEDGE panel)", "T7 sequence (Q9UM73 19-1620)": "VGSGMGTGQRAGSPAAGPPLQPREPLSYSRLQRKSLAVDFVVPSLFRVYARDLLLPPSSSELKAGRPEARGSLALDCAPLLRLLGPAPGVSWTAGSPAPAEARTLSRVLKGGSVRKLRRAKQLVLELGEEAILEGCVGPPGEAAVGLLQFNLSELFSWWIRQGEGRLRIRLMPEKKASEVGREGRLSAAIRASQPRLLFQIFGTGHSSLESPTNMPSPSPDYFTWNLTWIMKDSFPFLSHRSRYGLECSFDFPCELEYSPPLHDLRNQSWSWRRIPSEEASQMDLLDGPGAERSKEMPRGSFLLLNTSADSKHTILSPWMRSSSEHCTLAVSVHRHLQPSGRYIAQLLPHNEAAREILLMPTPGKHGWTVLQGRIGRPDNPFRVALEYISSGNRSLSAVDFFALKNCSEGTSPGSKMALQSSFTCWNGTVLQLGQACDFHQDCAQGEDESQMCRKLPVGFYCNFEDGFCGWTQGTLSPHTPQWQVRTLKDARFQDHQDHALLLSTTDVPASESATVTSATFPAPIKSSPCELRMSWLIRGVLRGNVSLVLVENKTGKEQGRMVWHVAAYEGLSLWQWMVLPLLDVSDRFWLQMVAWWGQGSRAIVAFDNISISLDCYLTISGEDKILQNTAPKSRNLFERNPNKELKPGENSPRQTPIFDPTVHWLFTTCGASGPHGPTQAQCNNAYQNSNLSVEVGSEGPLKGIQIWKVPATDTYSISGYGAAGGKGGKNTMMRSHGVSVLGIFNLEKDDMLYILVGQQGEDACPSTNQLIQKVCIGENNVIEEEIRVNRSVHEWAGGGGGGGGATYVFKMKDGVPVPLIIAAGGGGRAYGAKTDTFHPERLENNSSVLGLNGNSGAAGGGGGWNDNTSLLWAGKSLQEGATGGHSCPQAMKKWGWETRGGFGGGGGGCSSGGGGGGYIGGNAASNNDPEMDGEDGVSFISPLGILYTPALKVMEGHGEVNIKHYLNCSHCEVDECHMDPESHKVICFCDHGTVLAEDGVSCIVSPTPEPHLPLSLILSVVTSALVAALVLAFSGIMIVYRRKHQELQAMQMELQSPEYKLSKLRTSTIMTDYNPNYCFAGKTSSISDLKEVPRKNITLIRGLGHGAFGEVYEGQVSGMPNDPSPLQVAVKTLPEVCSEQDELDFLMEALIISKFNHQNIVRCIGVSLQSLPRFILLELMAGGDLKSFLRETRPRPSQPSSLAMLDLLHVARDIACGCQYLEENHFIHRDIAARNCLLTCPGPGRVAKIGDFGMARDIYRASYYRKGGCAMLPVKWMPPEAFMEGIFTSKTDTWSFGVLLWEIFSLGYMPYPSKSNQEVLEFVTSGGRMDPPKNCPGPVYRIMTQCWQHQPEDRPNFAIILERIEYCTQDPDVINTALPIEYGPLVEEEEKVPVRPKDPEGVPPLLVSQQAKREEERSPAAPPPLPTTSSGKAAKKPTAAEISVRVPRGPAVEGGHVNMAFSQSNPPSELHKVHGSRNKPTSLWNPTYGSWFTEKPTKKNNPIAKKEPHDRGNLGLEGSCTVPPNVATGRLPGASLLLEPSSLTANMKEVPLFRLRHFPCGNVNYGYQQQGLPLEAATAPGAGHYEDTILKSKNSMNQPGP", "experiment": "DiscoveRx KinomeScan binding"}, "RAF1": {"biological_target": "T8, RAF1 (Homo sapiens, UniProt P04049)", "T8 construct": "purchased DiscoveRx scanEDGE panel", "experiment": "DiscoveRx KinomeScan binding"}, "PIM2": {"biological_target": "T9, PIM2 (Homo sapiens, UniProt Q9P1W9)", "T9 construct": "purchased DiscoveRx scanEDGE panel", "experiment": "DiscoveRx KinomeScan binding"}, "PIM1": {"biological_target": "T10, PIM1 (Homo sapiens, UniProt P11309)", "T10 construct": "purchased DiscoveRx scanEDGE panel", "experiment": "DiscoveRx KinomeScan binding"}, "PDPK1": {"biological_target": "T11, PDPK1 (Homo sapiens, UniProt O15530)", "T11 construct": "purchased DiscoveRx scanEDGE panel (KinomeScan)", "experiment": "DiscoveRx KinomeScan binding"}, "RET": {"biological_target": "T12, RET (Homo sapiens, UniProt P07949)", "T12 construct": "purchased DiscoveRx scanEDGE panel", "T12 sequence (P07949 29-1114)": "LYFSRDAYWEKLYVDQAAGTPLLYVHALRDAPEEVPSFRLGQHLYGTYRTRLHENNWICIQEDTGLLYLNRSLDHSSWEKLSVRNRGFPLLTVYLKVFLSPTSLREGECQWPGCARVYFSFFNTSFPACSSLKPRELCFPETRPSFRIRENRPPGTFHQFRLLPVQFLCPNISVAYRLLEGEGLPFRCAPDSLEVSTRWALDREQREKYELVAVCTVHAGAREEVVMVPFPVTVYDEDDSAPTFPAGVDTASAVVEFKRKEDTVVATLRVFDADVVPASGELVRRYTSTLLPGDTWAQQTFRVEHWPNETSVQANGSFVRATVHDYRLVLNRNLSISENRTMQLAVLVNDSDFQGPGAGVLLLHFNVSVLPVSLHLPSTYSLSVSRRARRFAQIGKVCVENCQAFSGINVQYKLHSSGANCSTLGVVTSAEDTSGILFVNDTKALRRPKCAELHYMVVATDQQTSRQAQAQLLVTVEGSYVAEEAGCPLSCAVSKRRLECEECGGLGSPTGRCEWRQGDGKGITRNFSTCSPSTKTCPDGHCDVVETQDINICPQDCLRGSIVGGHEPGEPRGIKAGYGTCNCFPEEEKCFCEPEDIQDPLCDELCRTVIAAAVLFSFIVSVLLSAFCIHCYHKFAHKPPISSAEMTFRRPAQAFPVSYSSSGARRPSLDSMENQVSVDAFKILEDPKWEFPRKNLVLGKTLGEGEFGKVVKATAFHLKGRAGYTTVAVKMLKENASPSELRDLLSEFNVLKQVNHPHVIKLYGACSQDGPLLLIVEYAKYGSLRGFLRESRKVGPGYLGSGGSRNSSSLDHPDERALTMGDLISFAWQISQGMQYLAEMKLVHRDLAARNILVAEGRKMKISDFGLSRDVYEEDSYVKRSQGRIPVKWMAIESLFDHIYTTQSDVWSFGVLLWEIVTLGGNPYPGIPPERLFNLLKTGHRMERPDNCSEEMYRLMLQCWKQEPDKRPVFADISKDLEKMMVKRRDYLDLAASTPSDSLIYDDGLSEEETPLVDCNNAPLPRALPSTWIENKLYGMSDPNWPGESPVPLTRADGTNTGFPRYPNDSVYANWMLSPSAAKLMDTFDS", "experiment": "DiscoveRx KinomeScan binding"}, "JNK2": {"biological_target": "T13, JNK2 (Homo sapiens, UniProt P45984)", "T13 construct": "purchased DiscoveRx scanEDGE panel (KinomeScan)", "experiment": "DiscoveRx KinomeScan binding", "conditions": "Entrez MAPK9"}, "HCT-116 cells [1]": {"test_system": "HCT-116 cells", "experiment": "DNA content by propidium iodide flow cytometry", "type": "cell-based", "conditions": "10 μM, 24 hours or 48 hours", "protocol": "In addition, HCT-116 cells were treated with 10 μM of DMSO, or the Aurora Kinase Inhibitors barasertib, GSK1070916, MLN8054, BRD-7880, or tozasertib. 24 hours or 48 hours following treatment, cells were stained with propidium iodide and DNA content per cell was assessed using a Becton Dickinson LSR II flow cytometer."}, "INSR": {"biological_target": "T14, INSR (Homo sapiens, UniProt P06213)", "T14 construct": "purchased DiscoveRx scanEDGE panel", "experiment": "DiscoveRx KinomeScan binding"}, "ERBB2": {"biological_target": "T15, ERBB2 (Homo sapiens, UniProt P04626)", "T15 construct": "purchased DiscoveRx scanEDGE panel", "experiment": "DiscoveRx KinomeScan binding"}, "SRC": {"biological_target": "T16, SRC (Homo sapiens, UniProt P12931)", "T16 construct": "purchased DiscoveRx scanEDGE panel", "experiment": "DiscoveRx KinomeScan binding"}, "HCT-116 cells [2]": {"test_system": "HCT-116 cells", "experiment": "Western blot phosphoserine 10-histone H3", "type": "cell-based", "conditions": "10 μM", "protocol": "Finally, HCT-116 cells were treated with 10 μM of DMSO, barasertib, GSK1070916, MLN8054, BRD-7880, or tozasertib. Cells lysates were probed on Western blot using antibodies (diluted 1:1000) to histone H3 (Abcam cat. no. 24834), phosphoserine 10-histone H3 (Cell Signaling Technology cat no. 3377SS), aurora kinase B (Millipore cat. no. 04-1036), or beta-actin (Santa Cruz Biotechnology cat. no. sc-47778) and detected using a LI-COR Odyssey analyzer."}, "FGFR2": {"biological_target": "T17, FGFR2 (Homo sapiens, UniProt P21802)", "T17 construct": "purchased DiscoveRx scanEDGE panel", "T17 sequence (P21802 22-821)": "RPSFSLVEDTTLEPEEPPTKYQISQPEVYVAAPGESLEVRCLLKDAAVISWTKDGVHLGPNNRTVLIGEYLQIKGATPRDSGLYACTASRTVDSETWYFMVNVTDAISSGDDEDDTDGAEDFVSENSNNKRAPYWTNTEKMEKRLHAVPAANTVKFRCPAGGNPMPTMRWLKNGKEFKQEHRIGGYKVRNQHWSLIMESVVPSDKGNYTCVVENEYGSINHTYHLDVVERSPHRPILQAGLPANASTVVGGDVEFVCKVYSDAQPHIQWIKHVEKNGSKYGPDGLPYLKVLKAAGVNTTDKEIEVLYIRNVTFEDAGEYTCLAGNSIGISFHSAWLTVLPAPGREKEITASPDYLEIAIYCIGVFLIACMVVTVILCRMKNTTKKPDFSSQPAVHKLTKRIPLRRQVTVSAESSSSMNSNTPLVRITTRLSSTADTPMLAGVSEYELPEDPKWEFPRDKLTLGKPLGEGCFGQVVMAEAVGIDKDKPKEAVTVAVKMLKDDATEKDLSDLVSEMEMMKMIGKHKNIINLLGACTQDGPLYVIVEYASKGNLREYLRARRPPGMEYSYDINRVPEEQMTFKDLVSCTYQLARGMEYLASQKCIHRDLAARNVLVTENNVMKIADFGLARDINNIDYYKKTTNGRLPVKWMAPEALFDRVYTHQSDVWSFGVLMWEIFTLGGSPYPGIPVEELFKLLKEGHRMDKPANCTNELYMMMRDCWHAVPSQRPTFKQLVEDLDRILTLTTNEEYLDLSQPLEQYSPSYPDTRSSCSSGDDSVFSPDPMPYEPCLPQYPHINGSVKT", "experiment": "DiscoveRx KinomeScan binding"}, "IKK---alpha": {"biological_target": "T18, IKK---alpha (Homo sapiens, UniProt O15111)", "T18 construct": "purchased DiscoveRx scanEDGE panel", "experiment": "DiscoveRx KinomeScan binding", "conditions": "Entrez CHUK"}, "ABL1---nonphosphorylated": {"biological_target": "T19, ABL1---nonphosphorylated (Homo sapiens, UniProt P00519)", "T19 construct": "purchased DiscoveRx (KINOMEscan scanEDGE panel)", "experiment": "DiscoveRx KinomeScan binding", "conditions": "Entrez ABL1"}, "[3]": {"biological_target": "T20, ABL1(E255K)---phosphorylated (Homo sapiens, UniProt P00519, E255K)", "T20 construct": "purchased DiscoveRx (KINOMEscan scanEDGE panel)", "experiment": "DiscoveRx KinomeScan binding", "conditions": "Entrez ABL1"}, "PCTK1": {"biological_target": "T21, PCTK1 (Homo sapiens, UniProt Q00536)", "T21 construct": "purchased DiscoveRx scanEDGE panel (KinomeScan)", "T21 sequence (Q00536 whole entry)": "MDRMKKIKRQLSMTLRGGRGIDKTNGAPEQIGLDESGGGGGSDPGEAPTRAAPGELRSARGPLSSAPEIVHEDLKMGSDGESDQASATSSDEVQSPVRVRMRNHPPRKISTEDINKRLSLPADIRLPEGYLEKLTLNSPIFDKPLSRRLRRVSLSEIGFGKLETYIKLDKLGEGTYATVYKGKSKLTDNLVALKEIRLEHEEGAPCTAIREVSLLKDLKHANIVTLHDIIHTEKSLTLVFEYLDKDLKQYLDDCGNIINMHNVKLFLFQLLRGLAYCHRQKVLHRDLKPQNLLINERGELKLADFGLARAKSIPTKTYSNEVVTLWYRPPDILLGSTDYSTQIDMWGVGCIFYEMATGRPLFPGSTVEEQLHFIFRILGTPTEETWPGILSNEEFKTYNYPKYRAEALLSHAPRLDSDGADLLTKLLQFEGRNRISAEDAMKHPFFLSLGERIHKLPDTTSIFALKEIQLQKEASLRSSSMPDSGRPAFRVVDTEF", "experiment": "DiscoveRx KinomeScan binding", "conditions": "Entrez CDK16"}, "PDGFRA": {"biological_target": "T22, PDGFRA (Homo sapiens, UniProt P16234)", "T22 construct": "purchased DiscoveRx scanEDGE panel (KinomeScan)", "experiment": "DiscoveRx KinomeScan binding"}, "[4]": {"biological_target": "T23, full-length human aurora-A (Homo sapiens, UniProt O14965)", "T23 construct": "Full-length human aurora-A was assayed; purchased EMD Millipore KinaseProfiler service", "T23 sequence (O14965 whole entry)": "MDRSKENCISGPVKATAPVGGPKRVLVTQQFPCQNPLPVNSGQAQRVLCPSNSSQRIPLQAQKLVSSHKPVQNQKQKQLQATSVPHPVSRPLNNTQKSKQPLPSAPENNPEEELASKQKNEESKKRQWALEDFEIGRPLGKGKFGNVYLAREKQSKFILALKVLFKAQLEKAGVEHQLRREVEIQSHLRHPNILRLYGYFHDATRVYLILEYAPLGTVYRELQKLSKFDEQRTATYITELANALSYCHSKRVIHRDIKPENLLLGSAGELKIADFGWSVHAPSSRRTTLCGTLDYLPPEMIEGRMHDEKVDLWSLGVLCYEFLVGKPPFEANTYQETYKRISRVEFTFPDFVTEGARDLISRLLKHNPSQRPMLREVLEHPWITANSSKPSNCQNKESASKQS", "experiment": "In vitro kinase assay (EMD Millipore KinaseProfiler)", "type": "biochemical", "conditions": "10 μM γ-33P-ATP, 200 μM Kemptide, 8 doses in duplicate", "protocol": "(§1) In vitro kinase inhibition assays were then performed as follows. Incorporation of radioactivity from 10 μM γ-^33P-ATP was measured across 8 doses in duplicate by the EMD Millipore KinaseProfiler service (Billerica, Mass.) under published standard conditions with […]. Full-length human aurora-A was assayed with 200 μM LRRASLG (Kemptide); full-length human aurora-B with 30 μM […] (SEQ ID NO:5); and full-length human aurora-C with 30 μM […] (SEQ ID NO:6). IC50 values were modeled using least-squares and variable slope with Prism 6.0 software (GraphPad, San Diego, Calif.)."}, "[5]": {"biological_target": "T24, full-length human aurora-C (Homo sapiens, UniProt Q9UQB9)", "T24 construct": "purchased EMD Millipore KinaseProfiler service", "T24 sequence (Q9UQB9 whole entry)": "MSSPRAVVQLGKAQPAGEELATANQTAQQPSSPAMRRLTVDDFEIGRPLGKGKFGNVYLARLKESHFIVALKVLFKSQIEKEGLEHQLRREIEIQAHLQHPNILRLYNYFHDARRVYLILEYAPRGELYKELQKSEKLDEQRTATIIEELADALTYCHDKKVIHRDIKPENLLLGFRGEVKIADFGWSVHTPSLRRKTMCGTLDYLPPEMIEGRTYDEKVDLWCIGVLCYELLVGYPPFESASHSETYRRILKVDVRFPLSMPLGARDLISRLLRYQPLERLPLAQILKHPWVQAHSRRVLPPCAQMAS", "experiment": "In vitro kinase assay (EMD Millipore KinaseProfiler)", "type": "biochemical", "conditions": "10 μM γ-33P-ATP, 30 μM AKRRRLSSLRA, 8 doses in duplicate", "protocol": "as §1"}, "[6]": {"biological_target": "T25, full-length human aurora-B (Homo sapiens, UniProt Q96GD4)", "T25 construct": "purchased EMD Millipore KinaseProfiler service", "experiment": "In vitro kinase assay (EMD Millipore KinaseProfiler)", "type": "biochemical", "conditions": "10 μM γ-33P-ATP, 30 μM AKRRRLSSLRA, 8 doses in duplicate", "protocol": "as §1"}, "[7]": {"biological_target": "T26, JAK2(JH1domain---catalytic) (Homo sapiens, UniProt O60674)", "T26 construct": "JAK2(JH1domain---catalytic); purchased DiscoveRx scanEDGE panel", "T26 sequence (O60674 849-1124 limits assumed)": "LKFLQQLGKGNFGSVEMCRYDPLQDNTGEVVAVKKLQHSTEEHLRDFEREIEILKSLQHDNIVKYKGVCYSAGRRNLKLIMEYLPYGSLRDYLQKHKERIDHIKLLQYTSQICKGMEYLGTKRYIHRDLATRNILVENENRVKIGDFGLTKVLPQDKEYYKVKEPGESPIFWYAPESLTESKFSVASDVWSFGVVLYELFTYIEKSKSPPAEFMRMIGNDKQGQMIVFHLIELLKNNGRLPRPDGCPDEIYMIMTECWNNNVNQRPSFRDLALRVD", "experiment": "DiscoveRx KinomeScan binding"}, "JNK3": {"biological_target": "T27, JNK3 (Homo sapiens, UniProt P53779)", "T27 construct": "purchased DiscoveRx scanEDGE panel (KinomeScan)", "experiment": "DiscoveRx KinomeScan binding", "conditions": "Entrez MAPK10"}, "ROCK2": {"biological_target": "T28, ROCK2 (Homo sapiens, UniProt O75116)", "T28 construct": "purchased DiscoveRx scanEDGE panel", "experiment": "DiscoveRx KinomeScan binding"}, "MET": {"biological_target": "T29, MET (Homo sapiens, UniProt P08581)", "T29 construct": "purchased DiscoveRx scanEDGE panel (KinomeScan)", "experiment": "DiscoveRx KinomeScan binding"}}, "data": [{"smiles": "COc1ccc(NC(=O)Nc2ccc3c(c2)C(=O)N([C@@H](C)CO)C[C@H](C)[C@H](CN(C)Cc2ccc4c(c2)OCO4)O3)cc1", "note": "[BRD-7880]", "values": [{"measurement": "Percent Control", "setting": "CHEK1", "result": 100, "unit": "%"}, {"measurement": "Percent Control", "setting": "GSK3B", "result": 94, "unit": "%"}, {"measurement": "Percent Control", "setting": "TRKA", "result": 84, "unit": "%"}, {"measurement": "Percent Control", "setting": "BRAF", "result": 70, "unit": "%"}, {"measurement": "Percent Control", "setting": "PIK3CA", "result": 74, "unit": "%"}, {"measurement": "Percent Control", "setting": "ZAP70", "result": 93, "unit": "%"}, {"measurement": "Percent Control", "setting": "ALK", "result": 100, "unit": "%"}, {"measurement": "Percent Control", "setting": "RAF1", "result": 100, "unit": "%"}, {"measurement": "Percent Control", "setting": "PIM2", "result": 85, "unit": "%"}, {"measurement": "Percent Control", "setting": "PIM1", "result": 87, "unit": "%"}, {"measurement": "Percent Control", "setting": "PDPK1", "result": 48, "unit": "%"}, {"measurement": "Percent Control", "setting": "RET", "result": 100, "unit": "%"}, {"measurement": "Percent Control", "setting": "JNK2", "result": 89, "unit": "%"}, {"measurement": "DNA content per cell", "setting": "HCT-116 cells [1]", "result": "increased DNA content"}, {"measurement": "Percent Control", "setting": "INSR", "result": 36, "unit": "%"}, {"measurement": "Percent Control", "setting": "ERBB2", "result": 100, "unit": "%"}, {"measurement": "Percent Control", "setting": "SRC", "result": 81, "unit": "%"}, {"measurement": "phosphorylation of serine 10 on histone H3", "setting": "HCT-116 cells [2]", "result": "decrease phosphorylation of serine 10 on histone H3"}, {"measurement": "Percent Control", "setting": "FGFR2", "result": 77, "unit": "%"}, {"measurement": "Percent Control", "setting": "IKK---alpha", "result": 58, "unit": "%"}, {"measurement": "Percent Control", "setting": "ABL1---nonphosphorylated", "result": 100, "unit": "%"}, {"measurement": "Percent Control", "setting": "[3]", "result": 80, "unit": "%"}, {"measurement": "Percent Control", "setting": "PCTK1", "result": 95, "unit": "%"}, {"measurement": "Percent Control", "setting": "PDGFRA", "result": 90, "unit": "%"}, {"measurement": "IC50", "setting": "[4]", "result": 2150, "unit": "nM"}, {"measurement": "IC50", "setting": "[5]", "result": 12, "unit": "nM"}, {"measurement": "IC50", "setting": "[6]", "result": 7, "unit": "nM"}, {"measurement": "Percent Control", "setting": "[7]", "result": 98, "unit": "%"}, {"measurement": "Percent Control", "setting": "JNK3", "result": 70, "unit": "%"}, {"measurement": "Percent Control", "setting": "ROCK2", "result": 100, "unit": "%"}, {"measurement": "Percent Control", "setting": "MET", "result": 100, "unit": "%"}]}]}
